Measurements from patent publication US20250084128A1, “ANTIVIRAL […]-STAPLED SARS-CoV-2 PEPTIDE-C[…] USES THEREOF” (priority 2021, published 2025).
“Also recorded” adds a separate entry of the source.

Tests used:
Assay type in all cases: cell-based
live SARS-CoV-2 virus = tested on: live SARS-CoV-2 virus
[1] = tested on: pseudotyped SARS-CoV-2 virus
[2] = tested on: GFP-expressing SARS-CoV-1 (Urbani) pseudovirus

Row | Substance | differential antiviral activity (live SARS-CoV-2 virus) | antiviral activity [1] | antiviral activity [2] | antiviral activity (live SARS-CoV-2 virus) | antiviral activity, i, i+7 staple scan (live SARS-CoV-2 virus)
1 | DISGINASVVNIQK8IDRLNEXAKNLNESLIDLQELGK [SEQ ID NO: 11] | little to no activity | – | – | – | –
2 | DISGINASVVNIQKEI8RLNEVAXNLNESLIDLQELGK [SEQ ID NO: 13] | moderate activity | consistent antiviral activity | consistent antiviral activity | consistent antiviral activity | potent anti-viral activity; also recorded: among the most potent antiviral activity; also recorded: uniquely potent
3 | DISGINASVVNIQKEID8LNEVAKXLNESLIDLQELGK [SEQ ID NO: 14] | little to no activity | – | – | – | –
4 | DISGINASVVNIQKEIDR8NEVAKNXNESLIDLQELGK [SEQ ID NO: 15] | little to no activity | – | – | – | –
5 | DISGINASVVNIQKEIDRL8EVAKNLXESLIDLQELGK [SEQ ID NO: 16] | moderate activity | – | – | – | –
